Earlier results as cited in patent publication US8889745B2 (Nanunanu Ltd., priority 2006, dated 2014).
In brackets after ≈: the same amount, converted by molar mass.

C[C@@H]1C[C@H]2[C@@H]3CCC4=CC(=O)C=C[C@]4(C)[C@@]3(F)[C@@H](O)C[C@]2(C)[C@@]1(O)C(=O)CO [dexamethasone]
aqueous solubility: 88 µg/mL (≈ 224 µM)
